In experiment [1] the test system is scopolamine-induced amnesic mice. The experiment can be described thus: Y-Maze Paradigm, spontaneous alternation in scopolamine-induced amnesic model. It is filed as in vivo, Balb/C mice. Particulars: scopolamine 1 mg/kg i.p., n = 8. The text has this: For assessment of acute toxicity of the flavones (F1–F5), animals (21 in number) were divided into groups of 3 animals each. The reported protocols by Lorke were followed with slight modification to perform tests in two phases. In the first phase, one (control) group of animals were given Tween-80 (2%), and oral doses of F1–F5 were given to the remaining groups, respectively, at various doses (mg/kg body weight). […] The animals were housed in plastic cages. After two weeks, the animals were sacrificed by euthanasia with isoflurane in a humane manner for assessment of the effects on total weight and weight of the vital organs. The biochemical parameters of blood and histological studies of vital organs (kidney and liver tissue) were also assessed. […] The preliminary pharmacological activity was assessed at various dose concentrations of F1–F5 (2.5–20 mg/kg b.w.) to determine the effective dose for assessment of cognitive function using animal models.
(§1) The animals in the control (normal) and scopolamine amnesic groups were administered vehicle (Tween-80, 2%) only. Treated animals received F1–F5 suspended in Tween-80 (2%) p.o. at their respective doses for a period of 4 weeks. […] For assessing behavioral effects using the Y-Maze Paradigm and novel object discrimination (NOD) task, scopolamine (1 mg/kg, i.p.) was given to the different groups, 30 min after the respective treatments, to induce memory impairment (amnesia) in mice. All of the tests were performed between 8:00 a.m. and 6:00 p.m. to avoid sham results in the performance of the animals.
Behavioral tasks on the Y-Maze Paradigm and “NOD” tasks were conducted in the 5th week of study to determine learning and memory functions. The apparatus arena was cleaned with 70% ethanol during the inter-trial interval to prevent a confounding error due to the influence of odor [20, 21].
The Y-Maze task is a non-invasive and reliable behavioral test that was used for memory assessment of spontaneous alternation for F1–F5 based on previously reported protocols. A single session of Y-Maze was used to record the spontaneous alternation behavior of the animals to determine exploratory behavior and instant memory functioning. The apparatus was made of three arms in a “Y” shape (35 cm × 8 cm × 15 cm) with an equilateral triangular central area. In brief, each of the mice, previously naive to the maze, was placed at the terminal end of one arm. The animals were allowed to move and explore freely for 8 min through the maze. The number of arm entries was noted. One arm entry was considered when the hind paws of the animal were completely placed inside the arm, and the series of arm entries were documented. The spontaneous alternation in percent was calculated.

In experiment [2] the target is T1, BuChE (equine serum lyophilized) (Equus caballus, UniProt P81908).
T1 construct: purchased Sigma-Aldrich (Taufkirchen, Germany); host or cells: equine serum
T1 sequence (P81908 whole entry): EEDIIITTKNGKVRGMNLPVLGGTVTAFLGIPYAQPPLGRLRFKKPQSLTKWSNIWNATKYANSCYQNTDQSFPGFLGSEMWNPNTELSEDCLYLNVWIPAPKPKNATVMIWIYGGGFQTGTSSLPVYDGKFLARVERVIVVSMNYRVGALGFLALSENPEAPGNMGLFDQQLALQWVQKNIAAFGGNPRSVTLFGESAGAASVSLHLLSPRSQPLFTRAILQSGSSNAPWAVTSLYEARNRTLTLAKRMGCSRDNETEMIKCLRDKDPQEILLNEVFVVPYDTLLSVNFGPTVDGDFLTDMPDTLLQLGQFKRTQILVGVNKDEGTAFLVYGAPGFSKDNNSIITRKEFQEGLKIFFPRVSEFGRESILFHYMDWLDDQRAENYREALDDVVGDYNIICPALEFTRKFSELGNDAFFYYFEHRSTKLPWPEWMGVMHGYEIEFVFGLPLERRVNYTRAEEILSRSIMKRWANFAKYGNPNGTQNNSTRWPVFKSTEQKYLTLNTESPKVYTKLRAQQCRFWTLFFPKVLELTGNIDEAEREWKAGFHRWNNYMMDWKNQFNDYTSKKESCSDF
The experiment can be described thus: biochemical. Particulars: triplicate; read-out: BChE IC50 (converted). The procedure:
(§2) Synthetic flavonoids F1–F5 previously synthesized by our group were used in the study.
(§3) For the determination of acetylcholinesterase inhibitory potentials, AChE and BuChE were used. […] To the tube were added DTNB (100 µL) and buffer (2.4 mL). The tube was incubated at 25 °C for 5 min as pre-incubation. The reaction was started by adding ATChI (40 µL), and the mixture was incubated at 25 °C for 20 min. The absorbance at 412 nm was measured spectrophotometrically in triplicate. […] The data were recorded in triplicate, and IC50 was calculated.

Experiment [3] concerns the target T2, AChE (electric eel type-VI-S) (Electrophorus electricus, UniProt O42275).
T2 construct: purchased Sigma-Aldrich (Taufkirchen, Germany)
The experiment can be described thus: biochemical. Particulars: 25 °C, triplicate. On the procedure:
as §2, §3

The test system of experiment [4] is brains of scopolamine-induced amnesic mice. The experiment can be described thus: Antioxidant enzyme activities and oxidative stress markers in brain homogenate. Format: in vivo, Balb/C mice. Particulars: n = 8. The procedure:
as §1
The brain was extracted, and a homogenate (10% w/v) in 0.1 M of phosphate buffer (pH 7.4) was prepared by centrifugation for the assessment of brain oxidative status and estimating brain acetylcholinesterase activity. Catalase (CAT), superoxide dismutase (SOD), glutathione (GSH) and level of lipid peroxidation (malondialdehyde, MDA) were quantified as oxidative stress markers.

pIC50: −log10 of the molar value.

T2 sequence (O42275 24-633): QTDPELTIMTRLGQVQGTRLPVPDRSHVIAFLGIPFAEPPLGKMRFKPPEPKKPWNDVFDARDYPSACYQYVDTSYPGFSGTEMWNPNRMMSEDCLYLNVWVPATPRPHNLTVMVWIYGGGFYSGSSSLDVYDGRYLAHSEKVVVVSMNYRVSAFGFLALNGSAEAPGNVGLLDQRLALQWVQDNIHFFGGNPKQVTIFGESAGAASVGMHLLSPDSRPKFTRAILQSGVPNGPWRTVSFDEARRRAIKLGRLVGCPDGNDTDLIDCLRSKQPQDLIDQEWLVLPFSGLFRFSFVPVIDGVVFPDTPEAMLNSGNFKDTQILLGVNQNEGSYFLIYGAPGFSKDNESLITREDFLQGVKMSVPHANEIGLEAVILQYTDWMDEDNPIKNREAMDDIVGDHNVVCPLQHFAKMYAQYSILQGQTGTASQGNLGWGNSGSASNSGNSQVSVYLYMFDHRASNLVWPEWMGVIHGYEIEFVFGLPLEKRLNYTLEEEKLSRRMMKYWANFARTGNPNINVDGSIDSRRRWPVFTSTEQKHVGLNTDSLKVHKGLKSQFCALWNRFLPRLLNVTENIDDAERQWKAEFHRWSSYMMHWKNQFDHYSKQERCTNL

Turning to `O=c1cc(-c2cccc(Cl)c2Cl)oc2ccccc12` [Compound F3], the “Spontaneous Alternation Performance” value in experiment [1] (7.5 mg/kg b.w. p.o. 4 weeks) amounted to 59.61 ± 1.61 %. For the same compound, the “Spontaneous Alternation Performance” value in experiment [1] (15 mg/kg b.w. p.o. 4 weeks) is reported as 65.78 ± 1.57 %. Further, the IC50 in experiment [2] is 505 µM. Besides, in experiment [3], the negative logarithm of the IC50 (pIC50) is 3.36. Further, in experiment [4] (7.5 mg/kg b.w.), the CAT is 22.97 ± 1.71 U/mg of Protein, the GSH is 35.61 ± 1.55 μg/mg of Protein, the MDA came out at 16.37 ± 1.13 nmol/mg Protein and the SOD is 9.19 ± 1.21 U/mg of Protein. For the same compound, in experiment [4] (15 mg/kg b.w.), the CAT is on record as 24.50 ± 1.41 U/mg of Protein, the GSH is on record as 36.98 ± 1.66 μg/mg of Protein, the MDA is 15.94 ± 1.65 nmol/mg Protein and the SOD is 9.41 ± 1.29 U/mg of Protein.
As for `O=c1cc(-c2ccc(Cl)c(Cl)c2)oc2ccccc12` [Compound F4], the “Spontaneous Alternation Performance” value in experiment [1] (7.5 mg/kg b.w. p.o. 4 weeks) amounted to 57.92 ± 1.41 %. Also, the “Spontaneous Alternation Performance” value in experiment [1] (15 mg/kg b.w. p.o. 4 weeks) is recorded as 66.70 ± 1.63 %. For the same compound, in experiment [2], the IC50 is 418 µM. In experiment [3], this compound showed a negative logarithm of the IC50 (pIC50) of 3.41. Besides, in experiment [4] (7.5 mg/kg b.w.), the CAT is given as 22.21 ± 1.40 U/mg of Protein, the GSH is listed as 36.21 ± 1.35 μg/mg of Protein, the MDA is reported as 15.74 ± 1.21 nmol/mg Protein and the SOD is 9.30 ± 1.41 U/mg of Protein. For the same compound, in experiment [4] (15 mg/kg b.w.), the CAT is on record as 23.39 ± 1.32 U/mg of Protein, the GSH is 38.30 ± 1.40 μg/mg of Protein, the MDA came to 15.01 ± 1.37 nmol/mg Protein and the SOD was 9.71 ± 1.56 U/mg of Protein.

Source of the values: PMC9221371, “Flavonoid Derivatives as Potential Cholinesterase Inhibitors in Scopolamine-Induced Amnesic Mice: An In Vitro, In Vivo and Integrated Computational Approach” (Brain Sciences, 2022).
